Measured values as given in patent US11478474B2, “2-(3′-(hydroxymethyl)-1-methyl-5-((5-(2-methyl-4-(oxetan-3-yl)piperazin-1-yl)pyridin-2-yl)amino)-6-oxo-1,6-dihydro-[3,4′-bipyridin]-2′-yl)-7,7-dimethyl-7,8-dihydro-2H-cyclopenta[4,5]pyrrolo[1,2-a]pyrazin-1(6H)-one as a BTK inhibitor” (HUTCHISON MEDIPHARMA LIMITED, priority 2020, dated 2022).
pIC50: −log10 of the molar value.

target: BTK recombinant protein (Homo sapiens (Human), UniProt Q06187); assay: Determination of biochemical BTK (Z'-LYTE kinase assay)
Sequence (Q06187 whole entry): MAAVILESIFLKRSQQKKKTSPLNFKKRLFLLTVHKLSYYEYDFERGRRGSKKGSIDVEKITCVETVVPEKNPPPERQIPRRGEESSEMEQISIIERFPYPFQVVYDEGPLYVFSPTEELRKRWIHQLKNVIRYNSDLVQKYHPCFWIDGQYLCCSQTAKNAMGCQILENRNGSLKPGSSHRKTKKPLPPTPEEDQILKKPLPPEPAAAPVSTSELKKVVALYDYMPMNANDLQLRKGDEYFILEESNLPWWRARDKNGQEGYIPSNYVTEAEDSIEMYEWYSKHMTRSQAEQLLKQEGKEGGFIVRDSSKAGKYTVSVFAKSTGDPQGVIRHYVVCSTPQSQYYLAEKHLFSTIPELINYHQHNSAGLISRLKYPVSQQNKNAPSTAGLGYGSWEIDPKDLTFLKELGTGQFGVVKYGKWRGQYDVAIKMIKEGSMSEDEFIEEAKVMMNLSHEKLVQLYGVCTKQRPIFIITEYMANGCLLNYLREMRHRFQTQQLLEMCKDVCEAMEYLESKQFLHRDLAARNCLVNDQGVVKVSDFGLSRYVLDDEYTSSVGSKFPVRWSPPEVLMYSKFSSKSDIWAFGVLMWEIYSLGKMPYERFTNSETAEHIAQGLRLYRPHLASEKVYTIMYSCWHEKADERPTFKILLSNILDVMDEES
How it was run: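 Human BTK recombinant kinase (3.32 nM final) was preincubated with compound for 30 min at 4 °C. Reaction ran 1 h at room temperature with Tyr01 FRET peptide (2 μM) and ATP (32 μM); development protease then added. Coumarin 445 nm/fluorescein 520 nm emission ratio (400 nm excitation) gave inhibition across 8 concentrations, 3000–1.37 nM.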

SMILES | pIC50
CC1CCc2cc3c(=O)n(-c4nccc(-c5cc(Nc6ccc(N7CCN(C8COC8)C[C@@H]7C)cn6)c(=O)n(C)c5)c4CO)ccn3c2C1 (mixture of isomers) [Compound 78] | 8.10
C[C@@H]1CN(c2ccc(Nc3cc(-c4ccnc(-n5ccn6c7c(cc6c5=O)CCC7)c4CO)cn(C)c3=O)nc2)[C@@H](C)CN1C1COC1 [Compound 2, 2-(5-((5-((2S,5R)-2,5-dimethyl-4-(oxetan-3-yl)piperazin-1-yl)pyridin-2-yl)amino)-3′-(hydroxymethyl)-1-methyl-6-oxo-1,6-dihydro-[3,4′-bispyridin]-2′-yl)-7,8-dihydro-2H-cyclopenta[4,5]pyrrolo[1,2-a]pyrazin-1(6H)-one] | 8.05
COCCN1CCN(c2ccc(Nc3cc(-c4ccnc(-n5ccn6c7c(cc6c5=O)CC(C)(C)C7)c4CO)cn(C)c3=O)nc2)[C@@H](C)C1 [Compound 8] | 7.92
Cn1cc(-c2ccnc(-n3ccn4c5c(cc4c3=O)CC(C)(C)C5)c2CO)cc(Nc2ccc(N3CCN(C4COC4)CC3)cn2)c1=O [Compound 9] | > 9.00
C[C@H]1CN(C2COC2)CCN1c1ccc(Nc2cc(-c3ccnc(-n4ccn5c6c(cc5c4=O)CC(C)(C)C6)c3CO)cn3ncnc23)nc1 [Compound 21] | 8.10
C[C@H]1CN(C2COC2)CCN1c1ccc(Nc2cc(-c3ccnc(-n4ccn5c6c(cc5c4=O)CC(C)(C)C6)c3CO)cn3c(F)cnc23)nc1 [Compound 23] | 7.36
C[C@H]1CN(C)CCN1c1ccc(Nc2cc(-c3ccnc(-n4ccn5c6c(cc5c4=O)CC(C)(C)C6)c3CO)cn(C)c2=O)nc1 [Compound 26] | 8.15
C[C@@H]1CN(c2ccc(Nc3cc(-c4ccnc(-n5ccn6c7c(cc6c5=O)CC(C)(C)C7)c4CO)cn(C)c3=O)nc2)[C@@H](C)CN1C1COC1 [Compound 27] | 8.15
Cn1cc(Nc2cc(-c3ccnc(-n4ccn5c6c(cc5c4=O)CC(C)(C)C6)c3CO)cn(C)c2=O)nn1 [Compound 28] | 8.52
Cn1cc(-c2ccnc(-n3ccn4c5c(cc4c3=O)CC(C)(C)C5)c2CO)cc(Nc2cn(CCF)nn2)c1=O [Compound 31] | 8.05
C[C@H]1CN(C2COC2)CCN1c1cnc(Nc2cc(-c3ccnc(-n4ccn5c6c(cc5c4=O)CC(C)(C)C6)c3CO)cn(C)c2=O)cn1 [Compound 43] | 8.05
C[C@H]1CN(C2COC2)CCN1c1cnc(Nc2cc(-c3ccnc(-n4ccn5c6c(cc5c4=O)CC(C)(C)C6)c3CO)cn(C)c2=O)nc1 [Compound 44] | 7.66
CN1CCN(C(=O)c2ccc(Nc3cc(-c4ccnc(-n5ccn6c7c(cc6c5=O)CC(C)(C)C7)c4CO)cn(C)c3=O)nc2)CC1 [Compound 48] | 8.40
C[C@H]1CN(C2COC2)CCN1c1ccc(Nc2cc(-c3ccnc(-n4ccn5c6c(cc5c4=O)CC(C)(C)C6)c3CO)n[nH]c2=O)nc1 [Compound 49] | 8.22
COCCN(C)c1ccc(Nc2cc(-c3ccnc(-n4ccn5c6c(cc5c4=O)CC(C)(C)C6)c3CO)cn(C)c2=O)nc1 [Compound 50] | 7.62
C[C@H]1CN(C2COC2)CCN1c1ccc(Nc2cc(-c3ccnc(-n4ccn5c6c(cc5c4=O)CCC(F)(F)C6)c3CO)cn(C)c2=O)nc1 [Compound 56] | 7.70
C[C@H]1CN(C2COC2)CCN1c1ccc(Nc2cc(-c3ccnc(-n4ccn5c(c(F)c6ccccc65)c4=O)c3CO)cn(C)c2=O)nc1 [Compound 57] | 8.22
C[C@H]1CN(C2COC2)CCN1c1ccc(Nc2cc(-c3ccnc(-n4ccn5c6c(cc5c4=O)CC(F)(F)CC6)c3CO)cn(C)c2=O)nc1 [Compound 58] | 8.10
C[C@@H]1CN(c2ccc(Nc3cc(-c4ccnc(-n5ccn6c(c(F)c7ccccc76)c5=O)c4CO)cn(C)c3=O)nc2)[C@@H](C)CN1C1COC1 [Compound 59] | 8.30
C[C@H]1CN(C2COC2)CCN1c1ccc(Nc2cc(-c3ccnc(-n4ccn5c(c(F)c6cc(F)ccc65)c4=O)c3CO)cn(C)c2=O)nc1 [Compound 60] | 8.40
C[C@H]1CN(C2COC2)CCN1c1ccc(Nc2cc(-c3ccnc(-n4cnn5c6c(cc5c4=O)CC(C)(C)C6)c3CO)cn(C)c2=O)nc1 [Compound 63] | 8.10
C[C@H]1CN(C2COC2)CCN1c1ccc(Nc2cc(-c3ccnc(-n4ccn5c6c(cc5c4=O)CCC6)c3CO)cn(C)c2=O)nc1 [Compound 64] | 7.70
CCn1cc(Nc2cc(-c3ccnc(-n4ccn5c6c(cc5c4=O)CC(C)(C)C6)c3CO)cn3ncnc23)nn1 [Compound 71] | 8.22
C[C@H]1CN(C2COC2)CCN1c1ccc(Nc2cc(-c3ccnc(-n4ccn5c(cc6ccccc65)c4=O)c3CO)cn(C)c2=O)nc1 [Compound 74] | 7.77
C[C@H]1CN(C2COC2)CCN1c1ccc(Nc2cc(-c3ccnc(-n4ccn5c(cc6cc(F)ccc65)c4=O)c3CO)cn(C)c2=O)nc1 [Compound 75] | 7.96
C[C@H]1CN(C2COC2)CCN1c1ccc(Nc2cc(-c3ccnc(-n4ncn5c6c(cc5c4=O)CC(C)(C)C6)c3CO)cn(C)c2=O)nc1 [Compound 79] | > 9.00
